The assay has as its target T1, BTK(C481S)-GFP (Homo sapiens, UniProt Q06187+Q96SW2, C481S).
T1 construct: CHYSEL (cis-acting hydrolase element, 2A) remnant after GFP; mCherry is split off as a separate protein (C); expressed in transfected cells; host or cells: TMD8 cells, lentiviral transduction with pLenti6-BTK(C481S)-GFP-CHYSEL-mCherry
As to the kind of experiment: BTK(C481S)-GFP protein abundance flow cytometry assay in TMD8 cells. The assay is classed as cell-based. The note with it: TMD8 cells expressing BTK(C481S)-GFP; for DC50: GFP signal by flow cytometry; for BTK (C481S) Amax: % protein remaining at maximum degradation. How it is done: Compounds of the invention were tested in the following cellular assays. The terms in Table 2 are defined as follows: DC50 refers to the concentration at which 50% maximal degradation was observed; deg Amax is the extent of degradation and the value refers to the % protein remaining at the concentration at which maximum degradation is seen; ProI GI50 refers to the proliferation data and defines the concentration at which 50% growth inhibition was observed compared to the vehicle treated control at the end of the incubation time. TMD8 cells are BTK dependent and OCI-LY3 cells are BTK independent.
Btk(C481S)-GFP Protein Abundance Flow Cytometry Assay in TMD8 Cells:
Degradation of BTK(C481S) was measured in TMD8 cells expressing BTK(C481S)-GFP and mCherry from a stably integrated second generation bicistronic BTK(C481S)-GFP-CHYSEL-mCherry construct. Reduction of the […] measured by flow cytometry served as readout for BTK(C481S) degradation after degrader treatment.
Cloning of the pLenti6-BTK(C481)-GFP-CHYSEL-mCherry Sensor Vectors
The BTK(C481 S) protein abundance sensor is based on a second generation bicistronic construct, where the 2 reading frames BTK(C481S) and mCherry control are separated by a cis-acting hydrolase element (see: Lo et al., 2015 Cell Reports 13, 2634), replacing the Ires from the first generation vector described before.
The bicistronic BTK(C481S)-GFP-CHYSEL-mCherry construct is based on a pLenti6-DEST vector backbone where a GFP-CHYSEL-mCherry cassette was synthesized and inserted downstream of the DEST cassette by Gibson assembly resulting in the new gateway compatible vector pLenti6-DEST-GFP-CHYSEL-mCherry to allow Gateway cloning with pENTR221-BTK(C48S)(STOP-Leu) to obtain the final sensor construct pLenti6-BTK(C481S)-GFP-CHYSEL-mCherry. The pENTR221-BTK(C481S)(STOP-Leu) was generated by mutating wild-type BTK to BTK(C481S) with a mutagenesis reaction on pENTR221-BTK (STOP-Leu) with the following primers (BTK C481S Quikchange fw, gagtacatggccaatggctCcctcctgaactacctgagg (SEQ ID NO: 7); BTK C481S Quikchange REVC, cctcaggtagttcaggaggGagccattggccatgtactc (SEQ ID NO: 8)) using the QuikChange Lightning mutagenesis kit (Agilent Technologies #210518) performed according to the manufacturer's manual, resulting in pENTR221-BTK(C481S)(STOP-Leu).
Sequence of the synthesized construct (Xho1 sites are shown in bold, mCherry-ORF is shown in small letters):
Engineering of Stably Expressing TMD8 BTK(C481 S-GFP-CHYSEL-mCherry Sensor Cells
TMD8 BTK(C481S)-GFP-CHYSEL-mCherry sensor cells were generated by lentiviral vector transduction using the pLenti6-BTK(C4818)-GFP-CHYSEL-mCherry sensor construct described before. Lentiviral particles were produced in HEK293FT cells (Invitrogen R70007) by co-transfection of 500 ng pLenti6-BTK-GFP-Ires-RFP or pLenti6-IKZF3-GFP-Ires-RFP, 500 ng delta8.71 and 200 ng pVSVG diluted in 100 μl OptiMEM serum free medium (Invitrogen #11058-021) that was mixed after 5 min preincubation with 3 μl of Lipofectamine2000 (Invitrogen #11668-019) in 97 μl OptiMEM serum free medium. The mix was incubated for another 20 min at RT and then added to 1 ml of a freshly prepared suspension of HEK293FT cells in a well of a 6-well plate (concentration 1.2×10^6 cells/ml). 1 day after transfection, the medium was replaced with 1.5 ml of complete growth medium (DMEM high Glucose+10% FCS+1% L-Glutamine+1% NEAA+1% NaPyr.). 48 h post transfection supernatant containing viral transducing particles was collected and frozen at −80° C.
Two days before transduction with viral particles 1×10^5 HEK293A cells (Invitrogen R7057) were seeded in 2 ml growth medium in a well of a 6-well plate. Infection was performed with 90 μl of collected supernatant containing viral transducing particles in 1 ml medium including 8 μg/ml polybrene. 24 h post infection, stably transfected cells were selected with blasticidin at a concentration of 8 μg/ml.

T1 sequence (Q06187 whole entry C481S): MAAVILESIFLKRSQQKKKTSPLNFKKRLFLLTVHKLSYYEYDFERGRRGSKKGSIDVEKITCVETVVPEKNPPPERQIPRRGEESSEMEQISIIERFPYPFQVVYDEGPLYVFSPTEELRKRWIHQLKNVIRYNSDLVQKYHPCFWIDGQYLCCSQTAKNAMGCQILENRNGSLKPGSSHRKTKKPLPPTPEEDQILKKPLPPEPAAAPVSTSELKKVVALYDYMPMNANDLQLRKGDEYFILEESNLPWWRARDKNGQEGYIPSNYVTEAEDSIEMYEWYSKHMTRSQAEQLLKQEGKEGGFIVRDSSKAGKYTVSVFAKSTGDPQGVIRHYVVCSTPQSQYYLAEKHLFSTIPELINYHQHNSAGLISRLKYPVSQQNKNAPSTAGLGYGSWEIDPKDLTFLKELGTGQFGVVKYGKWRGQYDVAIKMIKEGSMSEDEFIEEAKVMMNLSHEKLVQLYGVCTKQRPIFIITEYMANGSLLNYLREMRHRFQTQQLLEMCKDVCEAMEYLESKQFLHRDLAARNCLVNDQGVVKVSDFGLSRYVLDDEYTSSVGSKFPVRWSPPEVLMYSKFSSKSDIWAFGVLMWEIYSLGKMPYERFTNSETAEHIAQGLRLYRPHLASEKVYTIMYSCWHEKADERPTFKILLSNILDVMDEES
T1 sequence (Q96SW2 whole entry): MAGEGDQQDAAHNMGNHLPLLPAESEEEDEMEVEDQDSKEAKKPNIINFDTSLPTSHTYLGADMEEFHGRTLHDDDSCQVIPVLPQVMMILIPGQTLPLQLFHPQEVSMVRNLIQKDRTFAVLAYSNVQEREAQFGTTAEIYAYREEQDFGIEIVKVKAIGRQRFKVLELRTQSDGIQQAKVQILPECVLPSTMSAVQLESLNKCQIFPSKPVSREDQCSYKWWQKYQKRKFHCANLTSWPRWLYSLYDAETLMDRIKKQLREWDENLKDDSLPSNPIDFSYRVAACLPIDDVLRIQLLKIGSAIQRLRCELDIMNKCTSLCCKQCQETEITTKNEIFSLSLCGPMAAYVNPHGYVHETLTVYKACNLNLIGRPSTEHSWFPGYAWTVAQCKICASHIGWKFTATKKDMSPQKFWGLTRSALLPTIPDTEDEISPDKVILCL
T1 sequence (Q16531 whole entry partner): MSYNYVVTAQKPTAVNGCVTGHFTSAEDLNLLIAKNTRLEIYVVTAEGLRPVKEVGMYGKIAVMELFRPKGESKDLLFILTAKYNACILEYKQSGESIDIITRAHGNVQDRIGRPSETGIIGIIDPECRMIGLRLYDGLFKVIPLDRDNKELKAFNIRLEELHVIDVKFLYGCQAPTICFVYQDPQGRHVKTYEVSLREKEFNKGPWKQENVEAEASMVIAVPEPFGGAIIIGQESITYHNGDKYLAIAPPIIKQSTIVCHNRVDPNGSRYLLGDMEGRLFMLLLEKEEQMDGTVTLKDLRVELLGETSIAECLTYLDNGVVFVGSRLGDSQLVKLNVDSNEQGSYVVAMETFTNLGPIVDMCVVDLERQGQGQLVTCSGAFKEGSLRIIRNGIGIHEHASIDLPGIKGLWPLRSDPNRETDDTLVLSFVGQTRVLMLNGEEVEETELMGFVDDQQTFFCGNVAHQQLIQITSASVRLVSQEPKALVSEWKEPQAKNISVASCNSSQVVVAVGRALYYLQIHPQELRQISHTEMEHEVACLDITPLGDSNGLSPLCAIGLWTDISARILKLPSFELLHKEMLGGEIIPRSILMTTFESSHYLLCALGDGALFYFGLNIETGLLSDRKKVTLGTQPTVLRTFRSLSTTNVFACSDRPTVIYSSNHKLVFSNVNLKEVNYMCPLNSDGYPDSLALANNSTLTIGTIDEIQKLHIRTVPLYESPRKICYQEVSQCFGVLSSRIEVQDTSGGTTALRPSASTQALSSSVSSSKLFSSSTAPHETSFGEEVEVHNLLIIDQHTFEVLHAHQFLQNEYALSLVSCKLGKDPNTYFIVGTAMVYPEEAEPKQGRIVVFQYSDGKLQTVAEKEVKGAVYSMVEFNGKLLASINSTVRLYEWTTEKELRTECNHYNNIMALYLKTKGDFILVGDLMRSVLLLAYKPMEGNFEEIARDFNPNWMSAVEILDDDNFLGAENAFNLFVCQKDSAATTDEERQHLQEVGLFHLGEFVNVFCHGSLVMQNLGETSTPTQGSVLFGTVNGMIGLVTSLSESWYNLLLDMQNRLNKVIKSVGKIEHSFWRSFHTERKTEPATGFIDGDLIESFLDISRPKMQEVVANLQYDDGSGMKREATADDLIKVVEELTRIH

On to `Cc1c(NC(=O)c2ccc(C(C)(C)O)cc2F)cc(F)cc1-c1ncnc2[nH]c(-c3ccc(CCN4CCC5(CC4)CCN(C(=O)c4ccc(F)c(N6CCC(=O)NC6=O)c4)CC5)cc3)cc12` [Compound 47, N-(3-(6-(4-(2-(9-(3-(2,4-dioxotetrahydropyrimidin-1(2H)-yl)-4-fluorobenzoyl)-3,9-diazaspiro[5.5]undecan-3-yl)ethyl)phenyl)-7H-pyrrolo[2,3-d]pyrimidin-4-yl)-5-fluoro-2-methylphenyl)-2-fluoro-4-(2-hydroxypropan-2-yl)benzamide], for which the DC50 stood at 0.72 nM and the “BTK (C481S) Amax” value is 2.4%.

`COc1ccc(C(=O)N2CCC(OC3CCN(Cc4ccc(-c5cc6c(-c7cc(F)cc(NC(=O)c8ccc(C(C)(C)O)cc8F)c7C)ncnc6[nH]5)cc4)CC3)CC2)cc1N1CCC(=O)NC1=O` [Compound 8, N-(3-(6-(4-((4-((1-(3-(2,4-dioxotetrahydropyrimidin-1(2H)-yl)-4-methoxybenzoyl)piperidin-4-yl)oxyl)piperidin-1-yl)methyl)phenyl)-7H-pyrrolo[2,3-d]pyrimidin-4-yl)-5-fluoro-2-methylphenyl)-2-fluoro-4-(2-hydroxypropan-2-yl)benzamide]: the DC50 is 2.08 nM and the “BTK (C481S) Amax” value is 2.7%.

Consider `COc1ccc(C(=O)N2CCN(C(=O)N3CCN(Cc4ccc(-c5cc6c(-c7cc(F)cc(NC(=O)c8ccc(C(C)(C)O)cc8F)c7C)ncnc6[nH]5)cc4)CC3)CC2)cc1N1CCC(=O)NC1=O` [Compound 22, N-(3-(6-(4-((4-(4-(3-(2,4-Dioxotetrahydropyrimidin-1(2H)-yl)-4-methoxybenzoyl)piperazine-1-carbonyl)piperazin-1-yl)methyl)phenyl)-7H-pyrrolo[2,3-d]pyrimidin-4-yl)-5-fluoro-2-methylphenyl)-2-fluoro-4-(2-hydroxypropan-2-yl)benzamide], for which the DC50 is 2.47 nM and the “BTK (C481S) Amax” value came out at 4.5%.

Take `Cc1c(NC(=O)c2ccc(C(C)(C)O)cc2F)cc(F)cc1-c1ncnc2[nH]c(-c3ccc(CCN4CCC5(CC4)CCN(C(=O)c4cccc(N6CCC(=O)NC6=O)c4)CC5)cc3)cc12` [Compound 12, N-(3-(6-(4-(2-(9-(3-(2,4-Dioxotetrahydropyrimidin-1(2H)-yl)benzoyl)-3,9-diazaspiro[5,5]undecan-3-yl)ethyl)phenyl)-7H-pyrrolo[2,3-d]pyrimidin-4-yl)-5-fluoro-2-methylphenyl)-2-fluoro-4-(2-hydroxypropan-2-yl)benzamide]: the DC50 is 1.58 nM and the “BTK (C481S) Amax” value is recorded as 2.9%.

In the case of `Cc1ccc(C(=O)N2CCC3(CCN(Cc4ccc(-c5cc6c(-c7cc(F)cc(NC(=O)c8ccc(C(C)(C)O)cc8F)c7C)ncnc6[nH]5)cc4)CC3)CC2)cc1N1CCC(=O)NC1=O` [Compound 27, N-(3-(6-(4-((9-(3-(2,4-Dioxotetrahydropyrimidin-1(2H)-yl)-4-methylbenzoyl)-3,9-diazaspiro[5.5]undecan-3-yl)methyl)phenyl)-7H-pyrrolo[2,3-d]pyrimidin-4-yl)-5-fluoro-2-methylphenyl)-2-fluoro-4-(2-hydroxypropan-2-yl)benzamide], the DC50 was 0.81 nM and the “BTK (C481S) Amax” value amounted to 2.8%.

For `COc1ccc(C(=O)N2CCC3(CC2)CCN(C(C)(C)Cc2ccc(-c4cc5c(-c6cc(F)cc(NC(=O)c7ccc(C(C)(C)O)cc7F)c6C)ncnc5[nH]4)cc2)CC3)cc1N1CCC(=O)NC1=O` [Compound 20, N-(3-(6-(4-(2-(9-(3-(2,4-Dioxotetrahydropyrimidin-1(2H)-yl)-4-methoxybenzoyl)-3,9-diazaspiro[5.5]undecan-3-yl)-2-methylpropyl)phenyl)-7H-pyrrolo[2,3-d]pyrimidin-4-yl)-5-fluoro-2-methylphenyl)-2-fluoro-4-(2-hydroxypropan-2-yl)benzamide], the DC50 came to 0.68 nM and the “BTK (C481S) Amax” value was 2.4%.

For the origin of these results see patent US12441733B2, “Substituted 2,4-dioxotetrahydropyrimidines as intermediates in the synthesis of bruton's tyrosine kinase inhibitors” (Novartis AG, priority 2018, dated 2025).
